Assay results taken from patent US20220226313A1, “COMBINATION THERAPIES THAT INCLUDE AN AGENT THAT PROMOTES GLUCOSE OXIDATION AND AN INHIBITOR OF PYRUVATE DEHYDROGENASE KINASE” (IMBRIA PHARMACEUTICALS, INC., priority 2019, published 2022).
“And” between values parts separate entries of the source, which are not always exact repeats. Equal values may be shown once.

Assays:
[1] = stability of CV-8972 in aqueous solution at different concentrations and pH; type: physicochemical
Procedure: The stability of CV-8972 was analyzed. Aqueous samples containing CV-8972 at different concentrations and pH were incubated for various periods and analyzed.
Form A of CV-8972 was analyzed for stability in aqueous solution. Aqueous samples containing CV-8972 at different concentrations and pH were incubated for various periods and analyzed.

[2] = recrystallization to monohydrate of CV-8972, water content by KF; type: physicochemical; settings: recrystallized monohydrate of CV-8972, MeOH:MEK with water; theoretical 3.32%
Text: The product was converted to the desired polymorph by recrystallization. The percentage of water and the ratio of methanol:methyl ethyl ketone (MEK) were varied in different batches using 2.5 g of product.
In batch MBA 25, 5% water w/r/t total volume of solvent (23 volumes) containing 30% methano1:70% MEK was used for precipitation. The yield was 67% of monohydrate of CV-8972.
In batch MBA 26, 1.33% water w/r/t total volume of solvent (30 volumes) containing 20% methano1:80% MEK was used for precipitation. […] Water content was determined by KF to be 4.0%.
In batch MBA 27, 3% water w/r/t total volume of solvent (32 volumes) containing 22% methano1:78% MEK was used for precipitation. The yield was 87.22% of monohydrate of CV-8972.
In other batches, the ratio and total volume of solvent were held constant at 20% methano1:80% MEK and 30 volumes in batches using 2.5 g of product, and only the percentage of water was varied.
In batch MBA 29, 1.0 equivalent of water was added. Material was isolated and dried under vacuum at 40° C. for 24 hours. Water content was determined by KF to be 0.89%, showing that the monohydrate form was not forming stoichiometrically.
In batch MBA 30, 3% water was added. Material was isolated and dried under vacuum at 40° C. for 24 hours.
In batch MBA 31, 5% water was added. Material was isolated and dried under vacuum at 40° C. for 24 hours. Water content was determined by KF to be 3.30%, showing that monohydrate is forming with addition of excess water.

[3] = system: isolated hearts after ischemia-reperfusion; test: ischemia-reperfusion (IR), coronary flow; type: in vivo, mice; settings: ratio of flow at 170 minutes to flow at 20 minutes
Procedure: FIG. 38 is a schematic of the ischemia-reperfusion (IR) method used to analyze the effects of selected compositions on coronary flow, cardiac function, and infarct size. […] At 20 minutes, ischemia was induced, and coronary flow was analyzed. At 50 minutes, reperfusion was initiated to restore blood flow. At 170 minutes, coronary flow and cardiac function was analyzed, and then the hearts were preserved, sectioned, and infarct size was measured by triphenyltetrazolium chloride (TTC) staining. FIG. 39 is a graph of coronary flow of after IR.

[4] = system: isolated hearts after ischemia-reperfusion; test: ischemia-reperfusion (IR), cardiac function (LVDP); type: in vivo, mice; settings: group mean
Procedure: At 20 minutes, ischemia was induced, and coronary flow was analyzed. At 50 minutes, reperfusion was initiated to restore blood flow. At 170 minutes, coronary flow and cardiac function was analyzed, and then the hearts were preserved, sectioned, and infarct size was measured by triphenyltetrazolium chloride (TTC) staining. […] Blue bars indicate LVDP at 20 minutes, and orange bars indicate LVDP at 170 minutes.

[5] = system: isolated hearts after ischemia-reperfusion; test: ischemia-reperfusion (IR), infarct size by TTC staining; type: in vivo, mice; settings: composite image data, mean of the group's hearts
Procedure: FIG. 38 is a schematic of the ischemia-reperfusion (IR) method used to analyze the effects of selected compositions on coronary flow, cardiac function, and infarct size. […] At 20 minutes, ischemia was induced, and coronary flow was analyzed. At 50 minutes, reperfusion was initiated to restore blood flow. At 170 minutes, coronary flow and cardiac function was analyzed, and then the hearts were preserved, sectioned, and infarct size was measured by triphenyltetrazolium chloride (TTC) staining. […] FIG. 42 is graph of infarct size after IR.

## COc1ccc(CN2CCN(CCOC(=O)c3cccnc3)CC2)c(OC)c1OC.Cl.Cl.Cl.O [Sample 276-MBA-172]
[1]; 2 mg/mL pH 6, 0 hrs
  Retention Time 5.6 (purity of CV-8972): 98.01
[1]; 2 mg/mL pH 7, 0 hrs
  Retention Time 5.6 (purity of CV-8972): 97.53
[1]; 10 mg/mL pH 6, 0 hrs
  Retention Time 5.6 (purity of CV-8972): 95.24
[1]; 10 mg/mL pH 7, 0 hrs
  Retention Time 5.6 (purity of CV-8972): 92.85

## COc1ccc(CN2CCN(CCOC(=O)c3cccnc3)CC2)c(OC)c1OC.Cl.Cl.Cl.O [Sample 289-MBA-25]
[2]
  KF result (% of water): 3.46%

## COc1ccc(CN2CCN(CCOC(=O)c3cccnc3)CC2)c(OC)c1OC.Cl.Cl.Cl.O [Sample 289-MBA-26]
[2]
  KF result (% of water): 4.00%
  KF result (Sample after drying at 40° C. for 24 hours): 3.75%

## COc1ccc(CN2CCN(CCOC(=O)c3cccnc3)CC2)c(OC)c1OC.Cl.Cl.Cl.O [Sample 289-MBA-27]
[2]
  KF result (% of water): 3.93%
  KF result (Sample after drying at 40° C. for 24 hours): 3.54%

## COc1ccc(CN2CCN(CCOC(=O)c3cccnc3)CC2)c(OC)c1OC.Cl.Cl.Cl.O [Sample 289-MBA-29]
[2]
  KF result (Sample after drying at 40° C. for 24 hours): 0.89%

## COc1ccc(CN2CCN(CCOC(=O)c3cccnc3)CC2)c(OC)c1OC.Cl.Cl.Cl.O [Sample 289-MBA-30]
[2]
  KF result (Sample after drying at 40° C. for 24 hours): 3.51%

## COc1ccc(CN2CCN(CCOC(=O)c3cccnc3)CC2)c(OC)c1OC.Cl.Cl.Cl.O [Sample 289-MBA-31]
[2]
  KF result (Sample after drying at 40° C. for 24 hours): 3.30%

## COc1ccc(CN2CCNCC2)c(OC)c1OC [TMZ, trimetazidine]
[3]; group MEAN
  CF170/CF20: 4.02E+01 ul/ml
[3]; individual heart
  CF170/CF20: 2.42E+01 ul/ml and 5.87E+01 ul/ml and 3.57E+01 ul/ml and 3.37E+01 ul/ml and 5.21E+01 ul/ml and 2.73E+01 ul/ml and 2.60E+01 ul/ml and 6.39E+01 ul/ml
[4]; Table 6, at 20 minutes
  left ventricular developed pressure (LVDP), T20 Mean: 55.86
[4]; Table 6, at 170 minutes
  left ventricular developed pressure (LVDP), T170 Mean: 48.91
[5]
  IS/LV, Mean: 56%
